Assay results as given in US9556378B2, “Chelating agent precursors, fluids containing them, and their use” (AKZO NOBEL CHEMICALS INTERNATIONAL B.V., priority 2011, dated 2017).

Experiments:
Assay type in all cases: physicochemical
[1] = Viscosity of chelate esters, Brookfield DV-II viscometer, spindle 25; conditions: 25° C.
Method: (§1) In addition, where possible, the following physical properties of the chelate esters were determined at 25° C.: • Viscosity in mPas • Surface tension in mN/m • Density in kg/m^3
(§2) The viscosity was determined with a Brookfield DV-II viscometer equipped with spindle 25, which is suitable to measure high-viscous liquids. The principle of operation of the DV-II is to drive a specific spindle which is immersed in the test fluid. The viscous drag of the fluid against the spindle is measured by a calibrated spring. The viscosity is calculated from the rotational speed, type, and the torque of the spindle. In addition, the surface tension was determined with a bubble pressure tensiometer. The tensiometer produces gas bubbles at a constant rate and blows them through a capillary which is submerged in the sample liquid. The pressure (P) inside of the bubble continues to increase and the maximum value is obtained when the bubble has the completely hemispherical shape whose radius corresponds exactly to the radius of the capillary.

[2] = Surface tension, bubble pressure tensiometer; conditions: 25° C.
Method: as §1, §2
By following each step of the bubble formation, change of bubble radius, and the corresponding pressure, the dynamic surface tension can be determined using the Laplace equation in the reduced form for spherical bubble shape within the liquid, equation: σ=(ΔPmax·Rcap)/2 where: σ=dynamic surface tension ΔPmax=maximum pressure drop Rcap=radius of capillary

[3] = Density, gravimetric (0.50 ml in weighted pipette); conditions: for Density: 25° C.; for density compared with water (in words): not measurable for the highly viscous esters
Method: as §1
The density was determined gravimetrically by slowly sucking up exactly 0.50 ml of the chelate ester in a weighted pipette and by weighing the total weight of the pipette and the chelate-ester, the weight of 0.50 ml of chelate ester could be determined.

[4] = Solubility of chelate ester in water
[5] = Hydrolysis rate of chelate esters followed by Fe-TSV (released chelate acid); conditions: for rate of hydrolysis (in words): 20 wt % ester in demi water, 90° C., Fe-TSV, FIG. 1-3; for effect of pH on hydrolysis rate (release of chelating agent): pH adjusted with caustic to 7 versus ~1, FIG. 4; for solubility of the chelate acid compared with EDTA acid: observed on hydrolysis of the esters, solid EDTA is formed
Method: (§3) In several experiments the hydrolysis of the chelate esters of Example 2 was investigated. First, the hydrolysis rate of the chelate esters was determined with ^1H and ^13C-NMR. […] Secondly, the hydrolysis rate was followed by determination of the Fe-TSV, which gives the concentration of the released chelate acid. To determine the Fe-TSV the chelate ester was added to demi water in a 5 ml glass vial, resulting in an ester concentration of 20 wt %. The mixture was continuously homogenized by shaking and a treatment in the ultrasonic bath. Subsequently, the vial was placed in a stove at 90° C. to simulate well conditions. After certain time intervals a sample was taken and analyzed on Fe-TSV. The percentage of hydrolysis is defined by:
The calculated chelate concentration at the start is calculated from the intake of the ester. The value is corrected for the purity as measured by NMR, assuming a 100% conversion of the corresponding chelate.

[6] = Hydrolysis rate of chelate esters by 1H and 13C-NMR; conditions: 70° C.
Method: as §3, with “Fe-TSV.” for “Fe-TSV. The percentage of hydrolysis is defined by:”

pH of the ester in water = assay: pH of the ester in water
[7] = 1 wt % / 1% slurry in water, product as formed (acidic)

Row | Compound | Viscosity [1] | Surface tension [2] | Density [3] | Soluble in water (pH = 0.5) [4] | other results
1 | CCCCOC(=O)CN(CCN(CC(=O)OCCCC)CC(=O)OCCCC)CC(=O)OCCCC [EDTA 4 butyl ester, EDTA-tetrabutyl ester, reference compound] | 8,100 mPas | 52.6 mN/m | > 1 g/mL | no (2 phases) | density compared with water (in words) [3]: clearly higher than water
2 | COC(=O)CN(CCN(CC(=O)OC)CC(=O)OC)CC(=O)OC [EDTA 4 methyl ester, EDTA-tetramethyl ester, reference compound] | – | – | – | Yes | Soluble in water (pH = ~7) [4]: Yes; rate of hydrolysis (in words) [5]: hydrolyzed much faster than the corresponding GLDA or MGDA-methyl ester
3 | CCCOC(=O)CN(CCN(CC(=O)OCCC)CC(=O)OCCC)CC(=O)OCCC [EDTA 4 propyl ester, EDTA-tetrapropyl ester, reference compound] | 260,000 mPas | 51.3 mN/m | > 1 g/mL | Yes | density compared with water (in words) [3]: clearly higher than water; Soluble in water (pH = ~7) [4]: no (2 phases); effect of pH on hydrolysis rate (release of chelating agent) [5]: decreased slightly with increasing pH
4 | CCCCOCCOC(=O)CCC(C(=O)OCCOCCCC)N(CC(=O)OCCOCCCC)CC(=O)OCCOCCCC (stereo not shown) [GLDA 4 EGMBE, GLDA-tetraEMGBE ester] | 67 mPas | 47.8 mN/m | 1.06 g/mL | no (2 phases) | –
5 | CCCCOC(=O)CCC(C(=O)OCCCC)N(CC(=O)OCCCC)CC(=O)OCCCC (stereo not shown) [GLDA 4 butyl ester, GLDA-tetrabutyl ester] | 38 mPas | 41.3 mN/m | 1.04 g/mL | no (2 phases) | –
6 | COC(=O)CCC(C(=O)OC)N(CC(=O)OC)CC(=O)OC (stereo not shown) [GLDA 4 methyl ester, GLDA-tetramethyl ester] | – | – | – | Yes | time to almost complete hydrolysis [6]: ~2 days; rate of hydrolysis (in words) [5]: nearly the same speed of hydrolysis
7 | CCCOC(=O)CCC(C(=O)OCCC)N(CC(=O)OCCC)CC(=O)OCCC (stereo not shown) [GLDA 4 propyl ester, GLDA-tetrapropyl ester] | 178 mPas | 69.2 mN/m | 1.11 g/mL | no (2 phases) | Soluble in water (pH = ~7) [4]: no (2 phases); effect of pH on hydrolysis rate (release of chelating agent) [5]: decreased slightly with increasing pH
8 | CCOC(=O)CCC(C(=O)OCC)N(CC(=O)OCC)CC(=O)OCC (stereo not shown) [GLDA tetra ethyl ester] | – | – | – | – | pH (pH of the ester in water; 1% slurry in water, less acidic product after treatment with 1 eq Na2CO3): ~9; pH (pH of the ester in water; [7]): 1.8
9 | O=C(O)CC[C@@H](C(=O)O)N(CC(=O)O)CC(=O)O [GLDA, glutamic acid N,N-diacetic acid] | – | – | – | – | solubility of the chelate acid compared with EDTA acid [5]: significantly higher
10 | COC(=O)CN(CC(=O)OC)C(C)C(=O)OC (stereo not shown) [MGDA 3 methyl ester, MGDA-trimethyl ester] | – | – | – | Yes | time to almost complete hydrolysis [6]: ~2 days; rate of hydrolysis (in words) [5]: nearly the same speed of hydrolysis
11 | CC(C(=O)O)N(CC(=O)O)CC(=O)O (stereo not shown) [MGDA, methylglycine N,N-diacetic acid] | – | – | – | – | solubility of the chelate acid compared with EDTA acid [5]: significantly higher
12 | GLDA Mono Ethyl Ester | – | – | – | – | pH (pH of the ester in water; [7]): 1.8
